How the values were obtained:
cultured cells = conditions: N-acetylmannosamine added to culture medium; cited from earlier work
[1] = tested on: CHO cell line that had been genetically engineered to produce TNFR:Fc; assay: Fraction of TNFR:Fc eluting at high salt from an anion exchange column (relative extent of sialylation); assay type: cell-based, Chinese hamster; conditions: additives at 4 mM each in serum-free medium, 7 days at 30° C., FIG. 2
Description: The following experiment was done to determine which carbohydrate or combination of carbohydrates added to cell culture medium is able to induce the most sialylation of TNFR:Fc produced by the cells. The relative extent of sialylation was determined by measuring the fraction of TNFR:Fc produced by a cell culture that elutes from an anion exchange column only at a high salt concentration. This provides a rough measure of the extent of sialylation because proteins with more sialic acid require a higher salt concentration for elution from an anion exchange column. […] Cultures were incubated for 7 days at 30° C. with shaking at 150 revolutions per minute. TNFR:Fc was harvested from the medium after seven days of growth and pre-purified by Protein A affinity chromatography. Thereafter, the purified TNFR:Fc protein concentration was determined by measuring absorbance at 280 nanometers. […] At 22.1 minutes, the gradient was complete, and the column contained 100% Buffer B. Elution of protein was determined by monitoring absorbance at 280 nanometers, and a graph of these measurements versus time (relative to the time of loading) was recorded automatically as the protein eluted from the column. […] The fraction of TNFR:Fc that eluted at high salt was determined by comparing the area under the curve that eluted after soybean trypsin inhibitor with the total area under the curve. […]

Structure (SMILES)	sialylation of a protein produced by the cultured cells (cultured cells)	sialylation of TNFR:Fc (high salt-eluting fraction compared to a batch produced without medium additives) [1]
CC(=O)N[C@@H]1C(O)O[C@H](CO)[C@@H](O)[C@@H]1O (some centres unmarked) [N-acetylmannosamine]	increased sialylation	
O=C[C@H](O)[C@@H](O)[C@@H](O)[C@H](O)CO [galactose]		increases in sialylation

From patent US7645609B2, “Method for controlling sialylation of proteins produced by mammalian cells” (Immunex Corporation, priority 2002, dated 2010)
